Test results as given in patent publication US6323203A, “Composition and method for treating diabetes” (Beyer; Camille F., priority 2000, dated 2001).

Key:
[1] = system: cutaneous vasomotor reaction of blush area; experiment: Cutaneous vasomotor response (and tolerability) after a single oral dose in 8 male volunteers; format: in vivo, human; conditions: single oral dose, 900 mg PZG
Method: (§1) Eight male nonsmoking subjects aged 24-32 participated. They were normal by history, physical exam and routine laboratory analysis of blood and urine.
(§2) This was a single-blind, three-phase crossover study beginning after a 10-hour fast at 8 a.m., designated time 0 (control), when the first venipuncture occurred. In phase I, three capsules of lactose were given orally, followed by venipunctures 2 and 4 h later. In phase II, 1 week later, after a control blood specimen drawn at 8 a.m., PZG (900 mg) was given orally and blood specimens taken 2 and 4 h thereafter. In phase III, 3 weeks later, after a control blood specimen drawn at 8 a.m., PZA (300 mg) was given orally and blood specimens taken 2 and 4 h later.
Comparisons of mean serum or plasma concentrations ±SD during placebo, PZG and PZA phases are presented in Table 1 for glucose, insulin, C-peptide, free fatty acids and norepinephrine. Comparisons of mean serum or plasma concentrations ±SD during these three phases are presented in Table 2 for triglycerides, VLDL, LDL, HDL, total cholesterol, fibrinogen and serum PZG and PZA concentrations. Note the close agreement of serum PZG and PZA concentrations at 2 h and also at 4 h after their administration. Table 3 compares mean serum or plasma concentrations ±SD of renin, angiotensin I, adlosterone, potassium, urea and uric acid during the three phases of the study. […] In an earlier pilot experiment to determine serum PZA concentrations following different PZA doses, a first subject ([…]) after a single oral dose of 300 mg PZA developed unexpectedly a typical cutaneous vasomotor reaction of their blush area which included flushed, warm skin of face, neck and shoulders with a mild rash for about 90 min. […] They described the reaction variously as warm redness or flushed head and neck, rash and itching (Table 4). These reactions, which were graded from 6 (most severe) to 0 (not observed), lasted from 30 min in 3 subjects to 4 h in 1 subject. […] No significant correlation occurred between score of reaction (effect+duration) and PZA peak blood concentration among the subjects (r=0.281) (Table 4).
^1 Score = warm + redness (flush) + rash + itching + duration. Duration
as 0.5 h, 1, 2, 4 h (reaction and duration as noted).

[2] = Single-blind, three-phase crossover study of single oral doses: blood analyses of metabolic, hormonal and electrolyte parameters in 8 normal male subjects; format: in vivo, human; conditions: for Free fatty acids, mean / Angiotensin I, mean / Renin, mean / C-peptide, mean / Potassium, mean / Uric acid, mean / Aldosterone, mean / Insulin, mean / Urea, mean / VLDL Cholesterol, mean / Norepinephrine, mean / HDL Cholesterol, mean / Glucose, mean / Triglycerides, mean / LDL Cholesterol, mean / Total cholesterol, mean / Fibrinogen, mean: 8 normal subjects; for Free fatty acids, mean: 0 h: PZG 0.47, PZA 0.51; for Angiotensin I, mean: 0 h: PZG 0.84, PZA 0.66; for Renin, mean: 0 h: PZG 1.0, PZA 1.5; for C-peptide, mean: 0 h: PZG 1.1, PZA 1.2; for Potassium, mean: 0 h: PZG 4.2, PZA 4.0; for Uric acid, mean: 0 h: PZG 6.0, PZA 5.6; for Aldosterone, mean: 0 h: PZG 8.6, PZA 13.6; for Insulin, mean: 0 h: PZG 8.8, PZA 5.4; for Urea, mean: 0 h: PZG 17, PZA 17; for VLDL Cholesterol, mean: 0 h: PZG 20, PZA 17; for Norepinephrine, mean: 0 h: PZG 37, PZA 75; for HDL Cholesterol, mean: 0 h: PZG 41, PZA 46; for Glucose, mean: 0 h: PZG 87, PZA 84; for Triglycerides, mean: 0 h: PZG 101, PZA 86; for LDL Cholesterol, mean: 0 h: PZG 107, PZA 104; for Total cholesterol, mean: 0 h: PZG 168, PZA 167; for Fibrinogen, mean: 0 h: PZG 266, PZA 293
Method: A three-phase study, where single oral doses of placebo, followed in one week by 900 mg of pyrazinoylguanidine (PZG), followed in three weeks by 300 mg of pyrazinoic acid (PZA), involving normal male subjects, was carried out to compare and contrast metabolic effects of single doses of PZG and PZA. A purpose of the study was to determine whether the metalbolic effects observed after 3 and also 21 days of PZG administration in patients with renal disease or with diabetes also occurred after a single oral dose. […]
as §1, §2
(§3) Each phase consisted of taking three capsules, each containing 300 mg. In phase I, all three capsules were of lactose; in phase II, all three were PZG; and in phase III, two capsules were lactose and one PZA. All capsules appeared indistinguishable and were given to each subject who swallowed them with water in the presence of an investigator.
(§4) Once obtained, blood specimens were immediately spun. Refrigerated serum or plasma was analyzed within 24 h for glucose, insulin, electrolytes, blood urea nitrogen, creatinine, liver function tests, triglycerides, total cholesterol, high-density lipoprotein (HDL) cholesterol, low-density lipoprotein (LDL) cholesterol, very-low-density lipoprotein (VLDL) cholesterol, free fatty acids, and fibrinogen.
Repeated measures of analysis of variance were used to compare each subject's placebo, PZG and PZA phase. Two-tailed Student t-tests were performed between groups. All results are reported as means ±SD. Statistical significance was considered when p<0.05. The results are illustrated in Tables 1-4.

[3] = Serum concentration of PZG or PZA after single oral dose in the crossover study; format: in vivo; conditions: human, 900 mg, 8 normal subjects
Method: as §1, §2, §3, §4

[4] = 2 h after single oral dose (PZG 900 mg, PZA 300 mg)
[5] = 4 h after single oral dose (PZG 900 mg, PZA 300 mg)

NC(N)=NC(=O)c1cnccn1 [PZG, pyrazinoylguanidine]
adverse reactions [1]: no adverse reaction
tolerability [1]: well tolerated
Free fatty acids, mean [2, 4]: 0.20 meq/l
Angiotensin I, mean [2, 4]: 0.86 ng/ml per h
Renin, mean [2, 4]: 1.2 ng/ml per h
C-peptide, mean [2, 4]: 0.9 ng/mL
Potassium, mean [2, 4]: 4.5 meg/l
Uric acid, mean [2, 4]: 6.0 mg/dL
Aldosterone, mean [2, 4]: 10.0 ng/dL
Insulin, mean [2, 4]: 6.2 μlU/ml
Urea, mean [2, 4]: 17 mg/dL
VLDL Cholesterol, mean [2, 4]: 18 mg/dL
Norepinephrine, mean [2, 4]: 53 pg/mL
HDL Cholesterol, mean [2, 4]: 42 mg/dL
Glucose, mean [2, 4]: 84 mg/dL
Triglycerides, mean [2, 4]: 91 mg/dL
LDL Cholesterol, mean [2, 4]: 107 mg/dL
Total cholesterol, mean [2, 4]: 167 mg/dL
Fibrinogen, mean [2, 4]: 273 mg/dL
Free fatty acids, mean [2, 5]: 0.19 meq/l
Angiotensin I, mean [2, 5]: 1.0 ng/ml per h
Renin, mean [2, 5]: 1.8 ng/ml per h
C-peptide, mean [2, 5]: 0.6 ng/mL
Potassium, mean [2, 5]: 4.3 meg/l
Uric acid, mean [2, 5]: 6.2 mg/dL
Aldosterone, mean [2, 5]: 9.5 ng/dL
Insulin, mean [2, 5]: 3.4 μlU/ml
Urea, mean [2, 5]: 16 mg/dL
VLDL Cholesterol, mean [2, 5]: 16 mg/dL
Norepinephrine, mean [2, 5]: 113 pg/mL
HDL Cholesterol, mean [2, 5]: 42 mg/dL
Glucose, mean [2, 5]: 80 mg/dL
Triglycerides, mean [2, 5]: 79 mg/dL
LDL Cholesterol, mean [2, 5]: 113 mg/dL
Total cholesterol, mean [2, 5]: 171 mg/dL
Fibrinogen, mean [2, 5]: 273 mg/dL
effect on potassium blood concentrations ([2]; single oral dose, within 4 h): not changed
concentration at 2 h ([3]; 2 h after single oral dose (PZG 900 mg, PZA 300 mg), read-out: Serum concentration of PZG or PZA, mean): 5100 ng/mL
concentration at 4 h [3, 5]: 3000 ng/mL
